Reference: patent US20230085307A1, “PYRIDAZINONE COMPOUND AND HERBICIDE” (NISSAN CHEMICAL CORPORATION, priority 2019, published 2023)

The molecules below were run on rice flat sedge (assay: Test Example 3: herbicidal effect by foliage application, Wagner pot (Table 18, symbol E)). Details: amount of applied herbicide 320 g/ha.
Type: in vivo, rice flat sedge (Cyperus iria)
Outline: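 Plants were sown in alluvial soil held under 0.1–0.5 cm standing water and grown 14 days in a greenhouse at 25–30 °C. An emulsifiable formulation, water-diluted to the set dose, was then sprayed onto the foliage, and effects were scored three weeks later using previously defined criteria.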

Compound | Herbicidal effect on E (rice flat sedge), foliage application
Cc1nn(C)c(=O)c(-c2c(-c3ccc4c(c3)OCCO4)oc3ccccc23)c1O [8-002] | 4 (Herbicidal rate of 70% or more and less than 90%)
CCCOc1ccc(-c2oc3ccccc3c2-c2c(O)c(C)nn(C)c2=O)cc1 [8-003] | 4 (Herbicidal rate of 70% or more and less than 90%)
C=CCOc1ccc(-c2oc3ccccc3c2-c2c(O)c(C)nn(C)c2=O)cc1 [8-004] | 4 (Herbicidal rate of 70% or more and less than 90%)

What follows are molecules tested on velvetleaf (assay: Test Example 4: herbicidal effect by soil treatment (Table 19, symbol M)). Details: amount of applied herbicide 320 g/ha.
Type: in vivo, velvetleaf (Abutilon theophrasti)
Outline: (§1)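 Pre-emergence style soil spray: seeds under ~1.5 cm sterilized diluvial soil received a uniform coat of emulsion diluted to the predetermined herbicide amount. Greenhouse 25–30° C; readout at week three on previously defined criteria.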

Compound | M: velvetleaf, herbicidal effect grade
Cc1nn(C)c(=O)c(-c2c(-c3ccc4c(c3)OCCO4)oc3ccccc23)c1O [8-002] | 0 (Herbicidal rate of 5% or less (almost no effect))
CCCOc1ccc(-c2oc3ccccc3c2-c2c(O)c(C)nn(C)c2=O)cc1 [8-003] | 1 (Herbicidal rate of 5% or more and less than 20%)
C=CCOc1ccc(-c2oc3ccccc3c2-c2c(O)c(C)nn(C)c2=O)cc1 [8-004] | 2 (Herbicidal rate of 20% or more and less than 40%)

Each molecule was assayed on lambsquarters (assay: Test Example 5: herbicidal effect by foliage application, plastic box (Table 20, symbol O)). Details: foliage application, 320 g/ha, three weeks after application.
Type: in vivo, lambsquarters (Chenopodium album)
Outline: (§2)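 Plants were sown into sterilized diluvial soil under about 1.5 cm cover and kept in a greenhouse at 25° C. to 30° C. Fourteen days on, foliage received an even spray of the diluted emulsion. Herbicidal or crop effect was judged three weeks afterwards.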

Compound | herbicidal effect on lambsquarters (O)
Cc1nn(C)c(=O)c(-c2c(-c3ccc4c(c3)OCCO4)oc3ccccc23)c1O [8-002] | 0 (Herbicidal rate of 5% or less (almost no effect))
CCCOc1ccc(-c2oc3ccccc3c2-c2c(O)c(C)nn(C)c2=O)cc1 [8-003] | 3 (Herbicidal rate of 40% or more and less than 70%)
C=CCOc1ccc(-c2oc3ccccc3c2-c2c(O)c(C)nn(C)c2=O)cc1 [8-004] | 3 (Herbicidal rate of 40% or more and less than 70%)

What follows are molecules tested on lambsquarters (assay: Test Example 4: herbicidal effect by soil treatment (Table 19, symbol O)). Details: amount of applied herbicide 320 g/ha.
Type: in vivo, lambsquarters (Chenopodium album)
Outline: as §1

Compound | O: lambsquarters, herbicidal effect grade
Cc1nn(C)c(=O)c(-c2c(-c3ccc4c(c3)OCCO4)oc3ccccc23)c1O [8-002] | 0 (Herbicidal rate of 5% or less (almost no effect))
CCCOc1ccc(-c2oc3ccccc3c2-c2c(O)c(C)nn(C)c2=O)cc1 [8-003] | 3 (Herbicidal rate of 40% or more and less than 70%)
C=CCOc1ccc(-c2oc3ccccc3c2-c2c(O)c(C)nn(C)c2=O)cc1 [8-004] | 2 (Herbicidal rate of 20% or more and less than 40%)

These molecules were tested on Italian ryegrass (assay: Test Example 4: herbicidal effect by soil treatment (Table 19, symbol K)). Details: amount of applied herbicide 320 g/ha.
Type: in vivo, Italian ryegrass (Lolium multiflorum)
Outline: as §1

Compound | K: Italian ryegrass, herbicidal effect grade
Cc1nn(C)c(=O)c(-c2c(-c3ccc4c(c3)OCCO4)oc3ccccc23)c1O [8-002] | 0 (Herbicidal rate of 5% or less (almost no effect))
CCCOc1ccc(-c2oc3ccccc3c2-c2c(O)c(C)nn(C)c2=O)cc1 [8-003] | 4 (Herbicidal rate of 70% or more and less than 90%)
C=CCOc1ccc(-c2oc3ccccc3c2-c2c(O)c(C)nn(C)c2=O)cc1 [8-004] | 4 (Herbicidal rate of 70% or more and less than 90%)

Each molecule was assayed on windgrass (assay: Test Example 5: herbicidal effect by foliage application, plastic box (Table 20, symbol L)). Details: foliage application, 320 g/ha, three weeks after application.
Type: in vivo, windgrass (Apera spica-venti)
Outline: as §2

Compound | herbicidal effect on windgrass (L)
Cc1nn(C)c(=O)c(-c2c(-c3ccc4c(c3)OCCO4)oc3ccccc23)c1O [8-002] | 1 (Herbicidal rate of 5% or more and less than 20%)
CCCOc1ccc(-c2oc3ccccc3c2-c2c(O)c(C)nn(C)c2=O)cc1 [8-003] | 0 (Herbicidal rate of 5% or less (almost no effect))
C=CCOc1ccc(-c2oc3ccccc3c2-c2c(O)c(C)nn(C)c2=O)cc1 [8-004] | 4 (Herbicidal rate of 70% or more and less than 90%)

Each molecule was assayed on oval-leafed pondweed (assay: Test Example 1: herbicidal activity, application before weed generation under submerged conditions (Table 16, symbol C)). Details: amount of applied herbicide 320 g/ha.
Type: in vivo, oval-leafed pondweed (Monochoria vaginalis)
Outline: (§3)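 Alluvial soil was flooded to 4 cm depth, weed seeds were sown mixed and 2.5-leaf rice seedlings were transplanted. On sowing day, the compound's emulsion, diluted in water to a set dose, was applied to the water surface. Plants grew at 25–30 °C and were scored 0–5 after three weeks.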

Compound | Herbicidal effect, C: oval-leafed pondweed
Cc1nn(C)c(=O)c(-c2c(-c3ccc4c(c3)OCCO4)oc3ccccc23)c1O [8-002] | 4 (Herbicidal rate of 70% or more and less than 90%)
CCCOc1ccc(-c2oc3ccccc3c2-c2c(O)c(C)nn(C)c2=O)cc1 [8-003] | 5 (Herbicidal rate of 90% or more (almost completely withered))
C=CCOc1ccc(-c2oc3ccccc3c2-c2c(O)c(C)nn(C)c2=O)cc1 [8-004] | 4 (Herbicidal rate of 70% or more and less than 90%)

Each molecule was assayed on velvetleaf (assay: Test Example 5: herbicidal effect by foliage application, plastic box (Table 20, symbol M)). Details: foliage application, 320 g/ha, three weeks after application.
Type: in vivo, velvetleaf (Abutilon theophrasti)
Outline: as §2

Compound | herbicidal effect on velvetleaf (M)
Cc1nn(C)c(=O)c(-c2c(-c3ccc4c(c3)OCCO4)oc3ccccc23)c1O [8-002] | 5 (Herbicidal rate of 90% or more (almost completely withered))
CCCOc1ccc(-c2oc3ccccc3c2-c2c(O)c(C)nn(C)c2=O)cc1 [8-003] | 5 (Herbicidal rate of 90% or more (almost completely withered))
C=CCOc1ccc(-c2oc3ccccc3c2-c2c(O)c(C)nn(C)c2=O)cc1 [8-004] | 2 (Herbicidal rate of 20% or more and less than 40%)

What follows are molecules tested on Japanese bulrush (assay: Test Example 2: herbicidal activity, application during weed generation under submerged conditions (Table 17, symbol B)). Details: AAH 320 g/ha; application during weed generation, submerged conditions.
Type: in vivo, Japanese bulrush (Schoenoplectus juncoides)
Outline: (§4)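 Herbicide emulsion, diluted with water to the chosen amount, is applied onto 4 cm floodwater over alluvial soil where the weeds were co-sown and raised at 25–30° C. Application timing: 1–2 leaves. Assessment: three weeks afterwards.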

Compound | herbicidal effect rating, B: Japanese bulrush
Cc1nn(C)c(=O)c(-c2c(-c3ccc4c(c3)OCCO4)oc3ccccc23)c1O [8-002] | 4 (Herbicidal rate of 70% or more and less than 90%)
CCCOc1ccc(-c2oc3ccccc3c2-c2c(O)c(C)nn(C)c2=O)cc1 [8-003] | 3 (Herbicidal rate of 40% or more and less than 70%)
C=CCOc1ccc(-c2oc3ccccc3c2-c2c(O)c(C)nn(C)c2=O)cc1 [8-004] | 3 (Herbicidal rate of 40% or more and less than 70%)

Each molecule was assayed on Japanese bulrush (assay: Test Example 1: herbicidal activity, application before weed generation under submerged conditions (Table 16, symbol B)). Details: amount of applied herbicide 320 g/ha.
Type: in vivo, Japanese bulrush (Schoenoplectus juncoides)
Outline: as §3

Compound | Herbicidal effect, B: Japanese bulrush
Cc1nn(C)c(=O)c(-c2c(-c3ccc4c(c3)OCCO4)oc3ccccc23)c1O [8-002] | 5 (Herbicidal rate of 90% or more (almost completely withered))
CCCOc1ccc(-c2oc3ccccc3c2-c2c(O)c(C)nn(C)c2=O)cc1 [8-003] | 5 (Herbicidal rate of 90% or more (almost completely withered))
C=CCOc1ccc(-c2oc3ccccc3c2-c2c(O)c(C)nn(C)c2=O)cc1 [8-004] | 5 (Herbicidal rate of 90% or more (almost completely withered))

What follows are molecules tested on wild oat (assay: Test Example 4: herbicidal effect by soil treatment (Table 19, symbol I)). Details: amount of applied herbicide 320 g/ha.
Type: in vivo, wild oat (Avena fatua)
Outline: as §1

Compound | I: wild oat, herbicidal effect grade
Cc1nn(C)c(=O)c(-c2c(-c3ccc4c(c3)OCCO4)oc3ccccc23)c1O [8-002] | 0 (Herbicidal rate of 5% or less (almost no effect))
CCCOc1ccc(-c2oc3ccccc3c2-c2c(O)c(C)nn(C)c2=O)cc1 [8-003] | 0 (Herbicidal rate of 5% or less (almost no effect))
C=CCOc1ccc(-c2oc3ccccc3c2-c2c(O)c(C)nn(C)c2=O)cc1 [8-004] | 0 (Herbicidal rate of 5% or less (almost no effect))

These molecules were tested on wild oat (assay: Test Example 5: herbicidal effect by foliage application, plastic box (Table 20, symbol I)). Details: foliage application, 320 g/ha, three weeks after application.
Type: in vivo, wild oat (Avena fatua)
Outline: as §2

Compound | herbicidal effect on wild oat (I)
Cc1nn(C)c(=O)c(-c2c(-c3ccc4c(c3)OCCO4)oc3ccccc23)c1O [8-002] | 2 (Herbicidal rate of 20% or more and less than 40%)
CCCOc1ccc(-c2oc3ccccc3c2-c2c(O)c(C)nn(C)c2=O)cc1 [8-003] | 1 (Herbicidal rate of 5% or more and less than 20%)
C=CCOc1ccc(-c2oc3ccccc3c2-c2c(O)c(C)nn(C)c2=O)cc1 [8-004] | 3 (Herbicidal rate of 40% or more and less than 70%)

These molecules were tested on barnyard grass (assay: Test Example 5: herbicidal effect by foliage application, plastic box (Table 20, symbol H)). Details: foliage application, 320 g/ha, three weeks after application.
Type: in vivo, barnyard grass (Echinochloa crus-galli)
Outline: as §2

Compound | herbicidal effect on barnyard grass (H)
Cc1nn(C)c(=O)c(-c2c(-c3ccc4c(c3)OCCO4)oc3ccccc23)c1O [8-002] | 4 (Herbicidal rate of 70% or more and less than 90%)
CCCOc1ccc(-c2oc3ccccc3c2-c2c(O)c(C)nn(C)c2=O)cc1 [8-003] | 5 (Herbicidal rate of 90% or more (almost completely withered))
C=CCOc1ccc(-c2oc3ccccc3c2-c2c(O)c(C)nn(C)c2=O)cc1 [8-004] | 3 (Herbicidal rate of 40% or more and less than 70%)

The molecules below were run on Italian ryegrass (assay: Test Example 5: herbicidal effect by foliage application, plastic box (Table 20, symbol K)). Details: foliage application, 320 g/ha, three weeks after application.
Type: in vivo, Italian ryegrass (Lolium multiflorum)
Outline: as §2

Compound | herbicidal effect on Italian ryegrass (K)
Cc1nn(C)c(=O)c(-c2c(-c3ccc4c(c3)OCCO4)oc3ccccc23)c1O [8-002] | 4 (Herbicidal rate of 70% or more and less than 90%)
CCCOc1ccc(-c2oc3ccccc3c2-c2c(O)c(C)nn(C)c2=O)cc1 [8-003] | 4 (Herbicidal rate of 70% or more and less than 90%)
C=CCOc1ccc(-c2oc3ccccc3c2-c2c(O)c(C)nn(C)c2=O)cc1 [8-004] | 4 (Herbicidal rate of 70% or more and less than 90%)

Each molecule was assayed on persian speedwell (assay: Test Example 4: herbicidal effect by soil treatment (Table 19, symbol R)). Details: amount of applied herbicide 320 g/ha.
Type: in vivo, Persian speedwell (Veronica persica)
Outline: as §1

Compound | R: persian speedwell, herbicidal effect grade
Cc1nn(C)c(=O)c(-c2c(-c3ccc4c(c3)OCCO4)oc3ccccc23)c1O [8-002] | 5 (Herbicidal rate of 90% or more (almost completely withered))
CCCOc1ccc(-c2oc3ccccc3c2-c2c(O)c(C)nn(C)c2=O)cc1 [8-003] | 4 (Herbicidal rate of 70% or more and less than 90%)
C=CCOc1ccc(-c2oc3ccccc3c2-c2c(O)c(C)nn(C)c2=O)cc1 [8-004] | 3 (Herbicidal rate of 40% or more and less than 70%)

These molecules were tested on late watergrass (assay: Test Example 2: herbicidal activity, application during weed generation under submerged conditions (Table 17, symbol A)). Details: AAH 320 g/ha; application during weed generation, submerged conditions.
Type: in vivo, late watergrass (Echinochloa oryzicola)
Outline: as §4

Compound | herbicidal effect rating, A: late watergrass
Cc1nn(C)c(=O)c(-c2c(-c3ccc4c(c3)OCCO4)oc3ccccc23)c1O [8-002] | 3 (Herbicidal rate of 40% or more and less than 70%)
CCCOc1ccc(-c2oc3ccccc3c2-c2c(O)c(C)nn(C)c2=O)cc1 [8-003] | 4 (Herbicidal rate of 70% or more and less than 90%)
C=CCOc1ccc(-c2oc3ccccc3c2-c2c(O)c(C)nn(C)c2=O)cc1 [8-004] | 3 (Herbicidal rate of 40% or more and less than 70%)
